This note sets out measurements from patent US20250101041A1, “POSITIVE ALLOSTERIC MODULATORS OF THE MUSCARINIC ACETYLCHOLINE RECEPTOR M4” (Vanderbilt University, priority 2022, published 2025).

This assay concerns the target T1, human mAChR M4 (Homo sapiens, UniProt P08173).
T1 construct: expressed in transfected cells; host or cells: CHO-K1 (American Type Culture Collection), stably expressing hM4 and Gqi5
T1 sequence (P08173 1-479): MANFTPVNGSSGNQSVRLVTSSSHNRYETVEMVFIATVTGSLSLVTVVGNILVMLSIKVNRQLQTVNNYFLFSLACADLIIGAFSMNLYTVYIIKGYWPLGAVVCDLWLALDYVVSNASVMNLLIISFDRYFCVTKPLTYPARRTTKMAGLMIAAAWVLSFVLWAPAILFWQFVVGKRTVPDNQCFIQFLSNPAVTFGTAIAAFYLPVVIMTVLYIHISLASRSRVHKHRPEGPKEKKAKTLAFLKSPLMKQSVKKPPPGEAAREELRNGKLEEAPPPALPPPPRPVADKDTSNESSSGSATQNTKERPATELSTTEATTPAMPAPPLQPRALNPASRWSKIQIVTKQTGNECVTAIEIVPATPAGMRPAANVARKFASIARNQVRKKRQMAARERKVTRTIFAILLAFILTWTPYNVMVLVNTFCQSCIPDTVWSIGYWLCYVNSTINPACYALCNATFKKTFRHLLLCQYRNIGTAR
Briefly: mAChR M4 cell-based functional assay: calcium mobilization (Fluo-4, FDSS), potentiation of EC20 acetylcholine response in hM4-Gqi5 CHO-K1 cells. Particulars: human M4; for Emax at 30 µM: CHO-K1, % ACh maximum at 30 μM; for EC50: potentiation of EC20 acetylcholine response, calcium mobilization. In short, it runs like this: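 Readout is the fluorescence-ratio rise at 1 Hz on FDSS, with PAM activity taken as concentration-dependent enhancement of the EC20 acetylcholine response, fitted four-parameter for EC50/Emax. hM4-Gqi5 CHO-K1 cells carried Fluo-4 AM dye; test compounds (11 points, 1:3) preceded EC20 acetylcholine additions at 144 s and 230 s.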
A general note: A change in cytosolic calcium serves as a functional read-out for many receptors and channels.

For the compound `COc1cc(C)c(-c2cnc3c(c2)CN(c2nn4c(=O)cc(C(F)F)nc4c(C)c2C)CC3)cn1` [Compound 1-188, 2-(difluoromethyl)-7-(3-(6-methoxy-4-methylpyridin-3-yl)-7,8-dihydro-1,6-naphthyridin-6(5H)-yl)-8,9-dimethyl-4H-pyrimido[1,2-b]pyridazin-4-one], the Emax at 30 µM turned out to be 91% and the EC50 came out at 103 nM.

On to `Cc1cc(=O)n2nc(N3CCc4ncc(-c5ccsc5)cc4C3)c(C)cc2n1` [Compound 1-300, 2,8-dimethyl-7-(3-(thiophen-3-yl)-7,8-dihydro-1,6-naphthyridin-6(5H)-yl)-4H-pyrimido[1,2-b]pyridazin-4-one], for which the Emax at 30 µM amounted to 87% and the EC50 was 122 nM.

For `Cc1cc2nccc(=O)n2nc1N1CCc2ncc(-c3cccc4ncccc34)cc2C1` [Compound 1-41, 8-methyl-7-(3-(quinolin-5-yl)-7,8-dihydro-1,6-naphthyridin-6(5H)-yl)-4H-pyrimido[1,2-b]pyridazin-4-one], the Emax at 30 µM was 83% and the EC50 worked out at 430 nM.

Consider `Cc1cc(=O)n2nc(N3CCc4ncc(-c5cc(F)ncc5F)cc4C3)c(C)c(C)c2n1` [Compound 1-281, 7-(3-(2,5-difluoropyridin-4-yl)-7,8-dihydro-1,6-naphthyridin-6(5H)-yl)-2,8,9-trimethyl-4H-pyrimido[1,2-b]pyridazin-4-one], for which the Emax at 30 µM amounted to 85% and the EC50 amounted to 498 nM.

Turning to `Cc1cc(=O)n2nc(N3CCc4ncc(-c5ccccc5C(C)C)cc4C3)c(C)cc2n1` [Compound 1-230, 7-(3-(2-isopropylphenyl)-7,8-dihydro-1,6-naphthyridin-6(5H)-yl)-2,8-dimethyl-4H-pyrimido[1,2-b]pyridazin-4-one], the maximum response (Emax) at 30 µM worked out at 43% and the EC50 is 1300 nM.

Turning to `COC1CN(C(=O)c2cc(=O)n3nc(N4CCc5ncc(C(F)(F)F)cc5C4)c(C)cc3n2)C1` [Compound 1-47, 2-(3-methoxyazetidine-1-carbonyl)-8-methyl-7-(3-(trifluoromethyl)-7,8-dihydro-1,6-naphthyridin-6(5H)-yl)-4H-pyrimido[1,2-b]pyridazin-4-one], the Emax at 30 µM worked out at 103% and the 50% effective concentration (EC50) worked out at 144 nM.

For the compound `Cc1cc2ncc(-c3ccccc3)c(=O)n2nc1N1CCc2ncc(C(F)(F)F)cc2C1` [Compound 1-21, 8-methyl-3-phenyl-7-(3-(trifluoromethyl)-7,8-dihydro-1,6-naphthyridin-6(5H)-yl)-4H-pyrimido[1,2-b]pyridazin-4-one], the Emax at 30 µM is 75% and the 50% effective concentration (EC50) is 136 nM.

Turning to `Cc1c(N2CCc3ncc(-c4cnn(CCN(C)C)c4)cc3C2)nn2c(=O)cc(C(F)F)nc2c1C` [Compound 1-308, 2-(difluoromethyl)-7-(3-(1-(2-(dimethylamino)ethyl)-1H-pyrazol-4-yl)-7,8-dihydro-1,6-naphthyridin-6(5H)-yl)-8,9-dimethyl-4H-pyrimido[1,2-b]pyridazin-4-one], the Emax at 30 µM turned out to be 78% and the EC50 turned out to be 313 nM.

Turning to `Cc1cc(=O)n2nc(N3CCc4ncc(-c5cnn(C6COC6)c5)cc4C3)c(C)c(C)c2n1` [Compound 1-179, 2,8,9-trimethyl-7-(3-(1-(oxetan-3-yl)-1H-pyrazol-4-yl)-7,8-dihydro-1,6-naphthyridin-6(5H)-yl)-4H-pyrimido[1,2-b]pyridazin-4-one], the maximum response (Emax) at 30 µM was found to be 85% and the EC50 stood at 805 nM.

With `COCc1cc(=O)n2nc(N3CCc4ncc(-c5cnn6c5COCC6)cc4C3)c(C)c(C)c2n1` [Compound 1-380, 7-(3-(6,7-dihydro-4H-pyrazolo[5,1-c][1,4]oxazin-3-yl)-7,8-dihydro-1,6-naphthyridin-6(5H)-yl)-2-(methoxymethyl)-8,9-dimethyl-4H-pyrimido[1,2-b] pyridazin-4-one], the Emax at 30 µM stood at 95% and the EC50 was 205 nM.

As to `Cc1cc2nccc(=O)n2nc1N1CCc2ncc(-c3cc(F)ccn3)cc2C1` [Compound 1-354, 7-(3-(4-fluoropyridin-2-yl)-7,8-dihydro-1,6-naphthyridin-6(5H)-yl)-8-methyl-4H-pyrimido [1,2-b]pyridazin-4-one], the Emax at 30 µM came to 63% and the EC50 amounted to 2540 nM.

`Cc1ccc(-c2cnc3c(c2)CN(c2nn4c(=O)cc(C)nc4cc2C)CC3)cn1` [Compound 1-30, 2,8-dimethyl-7-(3-(6-methylpyridin-3-yl)-7,8-dihydro-1,6-naphthyridin-6(5H)-yl)-4H-pyrimido[1,2-b]pyridazin-4-one]: the Emax at 30 µM came out at 69% and the EC50 came out at 127 nM.

`Cc1cc(=O)n2nc(N3CCc4ncc(-c5ccc(N(C)C)nc5)cc4C3)c(C)c(C)c2n1` [Compound 1-121, 7-(3-(6-(dimethylamino)pyridin-3-yl)-7,8-dihydro-1,6-naphthyridin-6(5H)-yl)-2,8,9-trimethyl-4H-pyrimido[1,2-b]pyridazin-4-one]: the Emax at 30 µM was 83% and the EC50 was 722 nM.

In the case of `Cc1cc2nccn2cc1-c1cnc2c(c1)CN(c1nn3c(=O)cc(C(F)F)nc3c(C)c1C)CC2` [Compound 1-162, 2-(difluoromethyl)-8,9-dimethyl-7-(3-(7-methylimidazo[1,2-a]pyridin-6-yl)-7,8-dihydro-1,6-naphthyridin-6(5H)-yl)-4H-pyrimido[1,2-b]pyridazin-4-one], the Emax at 30 µM is 71% and the EC50 came to 520 nM.

Turning to `Cc1cc(=O)n2nc(N3CCc4ncc(-c5cnc(F)cc5C)cc4C3)c(C)cc2n1` [Compound 1-209, 7-(3-(6-fluoro-4-methylpyridin-3-yl)-7,8-dihydro-1,6-naphthyridin-6(5H)-yl)-2,8-dimethyl-4H-pyrimido[1,2-b]pyridazin-4-one], the maximum response (Emax) at 30 µM was found to be 88% and the EC50 came out at 266 nM.

Regarding `Cc1ccc(-c2cnc3c(c2)CN(c2nn4c(=O)ccnc4cc2C)CC3)cn1` [Compound 1-3, 8-methyl-7-(3-(6-methylpyridin-3-yl)-7,8-dihydro-1,6-naphthyridin-6(5H)-yl)-4H-pyrimido[1,2-b]pyridazin-4-one], the maximal effect (Emax) at 30 µM is 76% and the EC50 was found to be 99 nM.

On to `Cc1cc2n(n1)CCCN2c1cnc2c(c1)CN(c1nn3c(=O)ccnc3c(C)c1C)CC2` [Compound 2-35, 8,9-dimethyl-7-(3-(2-methyl-6,7-dihydropyrazolo[1,5-a]pyrimidin-4(5H)-yl)-7,8-dihydro-1,6-naphthyridin-6(5H)-yl)-4H-pyrimido[1,2-b]pyridazin-4-one], for which the Emax at 30 µM turned out to be 96% and the EC50 was 46 nM.

Regarding `Cc1c(N2CCc3ncc(C(F)(F)F)cc3C2)nn2c(=O)ccnc2c1C1CC1` [Compound 1-113, 9-cyclopropyl-8-methyl-7-(3-(trifluoromethyl)-7,8-dihydro-1,6-naphthyridin-6(5H)-yl)-4H-pyrimido[1,2-b]pyridazin-4-one], the Emax at 30 µM was determined as 73% and the EC50 is 262 nM.

Turning to `Cc1ccc(-c2cnc3c(c2)CN(c2nn4c(=O)c(C)cnc4c(C)c2C)CC3)cn1` [Compound 1-100, 3,8,9-trimethyl-7-(3-(6-methylpyridin-3-yl)-7,8-dihydro-1,6-naphthyridin-6(5H)-yl)-4H-pyrimido[1,2-b]pyridazin-4-one], the Emax at 30 µM came to 92% and the EC50 was 134 nM.

`Cc1cc2nc(C)c(Cl)c(=O)n2nc1N1CCc2ncc(C(F)(F)F)cc2C1` [Compound 1-28, 3-chloro-2,8-dimethyl-7-(3-(trifluoromethyl)-7,8-dihydro-1,6-naphthyridin-6(5H)-yl)-4H-pyrimido[1,2-b]pyridazin-4-one]: the maximum response (Emax) at 30 µM is 86% and the concentration giving a half-maximal response (EC50) was 40 nM.

Take `Cc1cc(=O)n2nc(N3CCc4ncc(-c5cn6ccnc6cc5C)cc4C3)c(C)c(C)c2n1` [Compound 1-131, 2,8,9-trimethyl-7-(3-(7-methylimidazo[1,2-a]pyridin-6-yl)-7,8-dihydro-1,6-naphthyridin-6(5H)-yl)-4H-pyrimido[1,2-b]pyridazin-4-one]: the Emax at 30 µM amounted to 62% and the concentration giving a half-maximal response (EC50) came to 1760 nM.

Turning to `Cc1cc(=O)n2nc(N3CCc4ncc(N5CCO[C@H](C)C5)cc4C3)c(C)cc2n1` [Compound 2-18, (R)-2,8-dimethyl-7-(3-(2-methylmorpholino)-7,8-dihydro-1,6-naphthyridin-6(5H)-yl)-4H-pyrimido[1,2-b]pyridazin-4-one], the maximal response (Emax) at 30 µM is 92% and the EC50 stood at 80 nM.

On to `Cc1cc2nc(C)c(F)c(=O)n2nc1N1CCc2ncc(C(F)(F)F)cc2C1` [Compound 1-15, 3-fluoro-2,8-dimethyl-7-(3-(trifluoromethyl)-7,8-dihydro-1,6-naphthyridin-6(5H)-yl)-4H-pyrimido[1,2-b]pyridazin-4-one], for which the Emax at 30 µM is 73% and the EC50 was found to be 136 nM.

For `Cc1c(N2CCc3ncc(-c4ccc(N5CCOCC5)nc4)cc3C2)nn2c(=O)ccnc2c1C` [Compound 1-99, 8,9-dimethyl-7-(3-(6-morpholinopyridin-3-yl)-7,8-dihydro-1,6-naphthyridin-6(5H)-yl)-4H-pyrimido[1,2-b]pyridazin-4-one], the Emax at 30 µM came out at 88% and the EC50 came out at 190 nM.

The term Emax denotes the size of the effect at its maximum, as opposed to the concentration needed. As a reminder, the EC50 is the concentration giving half of the maximal effect.
